This is an account of results in patent EP1480941B1, “UREA DERIVATIVES AS HIV ASPARTYL PROTEASE INHIBITORS” (priority 2002, dated 2003).

Like-named read-outs stand apart in the source and are kept apart here.

For data set [1], the target named is HIV protease (Human immunodeficiency virus type 1 group M subtype B, UniProt P04585). In words: Enzymatic (fluorometric FRET) assay for determining the inhibition constant (Ki). It is filed as biochemical. As to conditions: EDANS/DABCYL substrate, equation of Henderson. The text has this: Enzymatic assay for determining the inhibition constant (Ki) of synthetic compounds targeting the HIV protease
This is a fluorometric assay based on the cleavage by protease of a substrate carrying a donor group (EDANS) and an acceptor group (DABCYL) on each side of the cleavage site, interacting together through fluorescence resonance energy transfer (FRET) as described by Matayoshi et al. (Science 247:[…], 1990).
After calculation of Vo and Vi, the inhibition constant (Ki) of the compound is determined using the equation of Henderson: (Vo)/(Vi) = 1 + ([I])/(Kiapp) Where Ki = (Kiapp)/((1 + [S])/(Km)) [formula] where Vo = the enzyme's initial velocity Vi = the enzyme velocity in the presence of the inhibitory compound, [I] = inhibitor concentration, [S] = substrate concentration, Km = Michaelis-Menten constant and Kiapp = apparent Ki
Graphs are traced and the Ki determined using GraphPad Prism software v. 3.0.

Data set [2] concerns laboratory viral strain NL4.3. In words: Anti-viral assay in vitro (MTT assay on infected MT-4 cells). The data set is classed as cell-based, HIV-1. As to conditions: Human immunodeficiency virus 1, MT4, 144 h, infected MT-4 cells incubated six days, average of at least two determinations. The text has this:
(§1) Anti-viral and cytotoxicity assays in vitro
(§2) We also use some WT clinical strains.
In general terms: Tetrazolium assays rely on reduction of a dye to a coloured formazan, in cell work by metabolically active cells.

Data set [3] relates to MT-4. The experiment in a line: Cytotoxicity assay in vitro (MTT assay, virus omitted). The data set is classed as cell-based.
Text: as §1, §2

Setting [4] is: cell culture IC50, same MTT assay with virus omitted, average of at least two determinations.

Broadly, the Ki is a dissociation constant, usually derived from enzyme kinetics or from competition with a known ligand. By EC50 is commonly meant the midpoint of the concentration-response curve. A low value points to higher potency in that assay. As to `COc1cc(CN(Cc2ccc3c(c2)OCO3)C(=S)NCCCC[C@@H](CO)N(CCC(C)C)S(=O)(=O)c2ccc(N)cc2)cc(OC)c1OC` [Example 107, (2S) 2-N-(4-aminobenzenesulfonyl)-2-N-(3-methylbutyl)-6-N-[N'-(3,4,5-trimethoxybenzyl)-N'-piperonylaminothiocarbonyl]-2,6-diaminohexanol], the Ki in data set [1] (Ki) stood at 4.9 nM. The EC50 in data set [2] was 680 nM. The molecule also displayed a CCIC50 in data set [3] (human, 6 days) of 10.7 µM.
For `CC(C)CN([C@H](CO)CCCCNC(=O)N(Cc1ccc2c(c1)OCO2)Cc1ccc2c(c1)OCO2)S(=O)(=O)c1ccc(N)cc1` [Example 85, (2S) 2-N-(4-aminobenzenesulfonyl)-2-N-isobutyl-6-N-(N',N'-dipiperonylaminocarbonyl)-2,6-diaminohexanol], the EC50 in data set [2] worked out at 130 nM. In data set [3] (setting [4]), the CCIC50 turned out to be 13.1 µM.
In turn, `COc1cccc(CN(Cc2ccc3c(c2)OCO3)C(=O)NCCCC[C@@H](CO)N(CCC(C)C)S(=O)(=O)c2ccc(N)cc2)c1` [Example 110, (2S) 2-N-(4-aminobenzenesulfonyl)-2-N-(3-methylbutyl)-6-N-[N'-(3-methoxybenzyl)-N'-piperonylaminocarbonyl]-2,6-diaminohexanol] returned a Ki in data set [1] (Ki) of 2.2 nM. Besides, in data set [2], the EC50 was 350 nM.
`CC(C)CN([C@H](CO)CCCCNC(=O)N(Cc1ccc(F)cc1)Cc1ccc2c(c1)OCO2)S(=O)(=O)c1ccc(N)cc1` [Example 67, (2S) 2-N-(4-aminobenzenesulfonyl)-2-N-isobutyl-6-N-[N'-(4-fluorobenzyl)-N'-piperonylaminocarbonyl]-2,6-diaminohexanol] came in with an EC50 in data set [2] of 488 nM. Also, the CCIC50 in data set [3] (setting [4]) came out at 11 µM.
Take `CC(C)CCN([C@H](CO)CCCCNC(=O)N(Cc1ccncc1)Cc1ccc2c(c1)OCO2)S(=O)(=O)c1ccc(N)cc1` [Example 95, (2S) 2-N-(4-aminobenzenesulfonyl)-2-N-(3-methylbutyl)-6-N-[N'-(4-picolyl)-N'-piperonylaminocarbonyl]-2,6-diaminohexanol]: the Ki in data set [1] (Ki) amounted to 7.1 nM. The same molecule displayed an EC50 in data set [2] of 550 nM. Besides, the CCIC50 in data set [3] (human, 6 days) amounted to 28.8 µM.
Molecule `CC(C)CCN([C@H](CO)CCCCNC(=O)N(Cc1ccc(F)cc1)Cc1ccc2c(c1)OCO2)S(=O)(=O)c1ccc(N)cc1` [Example 102, (2S) 2-N-(4-aminobenzenesulfonyl)-2-N-(3-methylbutyl)-6-N-[N'-(4-fluorobenzyl)-N'-piperonylaminocarbonyl]-2,6-diaminohexanol] showed a Ki in data set [1] (Ki) of 4.9 nM. For the same molecule, in data set [2], a half-maximal effect (EC50) was put at 1200 nM. In data set [3] (human, 6 days), this molecule registered a CCIC50 of 24.4 µM.
As to `Cc1ccc(S(=O)(=O)N(CC(C)C)[C@H](CO)CCCCNC(=O)N(Cc2ccccc2)Cc2ccccc2[N+](=O)[O-])cc1` [Example 59, (2S) 2-N-isobutyl-2-N-(4-methylbenzenesulfonyl)-6-N-[N'-benzyl-N'-(2-nitrobenzyl)aminocarbonyl]-2,6-diaminohexanol], the EC50 in data set [2] amounted to 385 nM. This molecule showed a CCIC50 in data set [3] (setting [4]) of 4.6 µM.
Regarding `CC(C)CN([C@H](CO)CCCCNC(=O)N(Cc1ccccc1)Cc1ccsc1)S(=O)(=O)c1ccc(N)cc1` [Example 76, (2S) 2-N-(4-aminobenzenesulfonyl)-2-N-isobutyl-6-N-[N'-benzyl-N'-(3-thiophenemethyl)aminocarbonyl]-2,6-diaminohexanol], the Ki in data set [1] (read-out: Ki) is 11 nM.
On the same count and under the same terms, the result for `CC(C)CN([C@H](CO)CCCCNC(=O)N(Cc1ccncc1)Cc1ccncc1)S(=O)(=O)c1ccc(N)cc1` [Example 51, (2S) 2-N-(4-aminobenzenesulfonyl)-2-N-isobutyl-6-N [N',N'-di-(4-picolyl)aminocarbonyl]-2,6-diaminohexanol] reads more than 300 nM.
In data set [2], `Cc1ccc(S(=O)(=O)N(CC(C)C)[C@H](CO)CCCCNC(=O)N(Cc2ccccc2)Cc2ccc([N+](=O)[O-])cc2)cc1` [Example 61, (2S) 2-N-isobutyl-2-N-(4-methylbenzenesulfonyl)-6-N-[N'-benzyl-N'-(4-nitrobenzyl)aminocarbonyl]-2,6-diaminohexanol] returned an EC50 of 3800 nM. The CCIC50 in data set [3] (setting [4]) worked out at 5.1 µM.
On the same counts, the results for `Cc1ccc(S(=O)(=O)N(CC(C)C)[C@H](CO)CCCCNC(=O)N(Cc2ccccc2)Cc2cccc([N+](=O)[O-])c2)cc1` [Example 60, (2S) 2-N-isobutyl-2-N-(4-methylbenzenesulfonyl)-6-N-[N'-benzyl-N'-(3-nitrobenzyl)aminocarbonyl]-2,6-diaminohexanol] are 1800 nM and 4.6 µM.
As for `Cc1ccc(S(=O)(=O)N(CC(C)C)[C@@H](CCCCNC(=O)N[C@H]2c3ccccc3C[C@H]2O)C(=O)O)cc1` [Example 23, (1S,1'S,2'R) Nα-isobutyl-Nα-(4-methylbenzenesulfonyl)-N∈-(cis-2'-hydroxyindanyl-1'-aminocarbonyl)-S-lysine], the Ki in data set [1] (read-out: Ki) is more than 300 nM.
`CC(C)CN([C@H](CO)CCCCNC(=O)N(Cc1ccccc1)Cc1cccc2c1OCO2)S(=O)(=O)c1ccc(N)cc1` [Example 91, (2S) 2-N-(4-aminobenzenesulfonyl)-2-N-isobutyl-6-N-[N'-benzyl-N'-(2,3-methylenedioxy)benzylaminocarbonyl]-2,6-diaminohexanol] came in with a Ki in data set [1] (Ki) of 5.4 nM.
In turn, `CC(C)CN([C@H](CO)CCCCNC(=O)N(Cc1ccccc1)Cc1ccc2c(c1)OCO2)S(=O)(=O)c1ccc(N)cc1` [Example 82, (2S) 2-N-(4-aminobenzenesulfonyl)-2-N-isobutyl-6-N-(N'-benzyl-N'-piperonylaminocarbonyl)-2,6-diaminohexanol] yielded an EC50 in data set [2] of 1400 nM. Besides, in data set [3] (setting [4]), the CCIC50 was 12.5 µM.
On to `Cc1ccc(S(=O)(=O)N(CC(C)C)[C@@H](CCCCNC(=O)NCc2ccccn2)C(=O)O)cc1` [Example 3, Nα-isobutyl-Nα-(4-methylbenzenesulfonyl)-N∈-[N'-(2-picolyl)aminocarbonyl]-L-lysine], for which, in data set [1] (read-out: Ki), the Ki is more than 300 nM.
The same measure, in the same setting: the result for `Cc1ccc(S(=O)(=O)N(CC(C)C)[C@H](CO)CCCCNC(=O)N(Cc2ccncc2)Cc2ccncc2)cc1` [Example 46, (2S) 2-N-isobutyl-2-N-(4-methylbenzenesulfonyl)-6-N-[N',N'-di-(4-picolyl)aminocarbonyl]-2,6-diaminohexanol] reads more than 300 nM.
